Here are results for 4 molecules from patent US8324172B2, “G protein coupled receptor agonists and antagonists and methods of activating and inhibiting G protein coupled receptors using the same” (Tufts Medical Center, Inc., priority 2000, dated 2012).

Numbering of substitutions follows the chain as printed. “And” between values parts separate entries of the source, which are not always exact repeats. Identical values can stand only once. Where a SMILES comes first, the peptide text is derived from it. The star is where a group is joined. Palmitoyl = CCCCCCCCCCCCCCCC(=O)*

In test [1] the test system is MDA-MB-231 breast cancer cells. Put plainly: Chemoinvasion of MDA-MB-231 breast cancer cells (Transwell). Type of test: cell-based, human. The conditions noted are these: NIH3T3 conditioned medium. As to the method: Experiments were performed in order to determine if application of pepducins based on the i3 loops of PAR1, PAR2, or PAR4 would inhibit migration and invasion of breast cancer cells. It was determined that the highly invasive MDA-MB-231 breast cancer cell line expressed very high levels of functional PAR1, PAR2 and PAR4. […] Pepducins were added with NIH3T3 Conditioned medium (CM) to the bottom well of a Transwell apparatus.

The target in test [2] is T1, PAR1 (Homo sapiens, UniProt P25116).
T1 construct: expressed in transfected cells
T1 sequence (P25116 22-425): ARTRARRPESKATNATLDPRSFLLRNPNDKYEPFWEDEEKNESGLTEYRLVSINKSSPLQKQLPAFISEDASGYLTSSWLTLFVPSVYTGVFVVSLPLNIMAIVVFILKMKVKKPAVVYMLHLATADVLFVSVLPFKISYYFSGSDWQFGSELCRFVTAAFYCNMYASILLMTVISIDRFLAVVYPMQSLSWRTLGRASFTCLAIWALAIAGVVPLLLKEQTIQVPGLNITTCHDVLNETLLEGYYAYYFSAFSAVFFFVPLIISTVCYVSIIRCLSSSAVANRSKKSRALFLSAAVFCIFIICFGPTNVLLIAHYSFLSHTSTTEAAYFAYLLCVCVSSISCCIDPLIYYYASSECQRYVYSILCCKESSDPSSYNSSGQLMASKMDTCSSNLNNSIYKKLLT
Put plainly: InsP formation in COS7 cells transiently transfected with wild-type PAR1. Type of test: cell-based.

For test [3], the target named is T2, PAR4 (Homo sapiens, UniProt Q96RI0).
T2 sequence (Q96RI0 18-385): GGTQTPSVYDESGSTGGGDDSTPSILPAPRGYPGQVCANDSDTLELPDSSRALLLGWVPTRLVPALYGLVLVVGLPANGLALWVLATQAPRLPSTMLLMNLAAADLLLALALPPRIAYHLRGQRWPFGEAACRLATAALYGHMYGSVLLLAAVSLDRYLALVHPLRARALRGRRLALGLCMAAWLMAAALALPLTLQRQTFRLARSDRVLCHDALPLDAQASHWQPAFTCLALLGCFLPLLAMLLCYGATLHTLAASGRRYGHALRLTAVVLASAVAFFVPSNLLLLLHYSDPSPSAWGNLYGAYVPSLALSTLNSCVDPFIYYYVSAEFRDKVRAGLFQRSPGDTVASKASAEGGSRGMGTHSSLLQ
Put plainly: InsP formation in COS7 cells expressing PAR4. Format: cell-based. On the set-up: expressed in transfected cells; host or cells: COS7, transient.

In test [4] the target is T1, PAR1. In words: InsP formation (PLC-β) in Rat1 fibroblasts expressing human PAR1. Format: cell-based. As to conditions: 0.1 nM thrombin.
The next test addresses T3, S309P PAR1 (Homo sapiens, UniProt P25116, S309P).
T3 construct: expressed in transfected cells; host or cells: COS7, transient
T3 sequence (P25116 22-425 S309P): T1 sequence (P25116 22-425) with S288P
Put plainly: InsP formation in COS7 cells expressing S309P PAR1 mutant. Format: cell-based. The conditions noted are these: relative to wild type PAR1.

The next test deals with delta377 PAR1. Put plainly: InsP formation in COS7 cells expressing delta377 (C-tail deleted) PAR1 mutant. Type of test: cell-based, human. The conditions noted are these: relative to wild type PAR1.
The test system of another test is murine platelets (PAR4). In words: Aggregation of washed murine platelets. As to conditions: read-out: EC50 of aggregation of murine platelets.
For test [5], the target named is T1, PAR1. In words: Inhibition of SFLLRN-induced human platelet aggregation. Type of test: cell-based. The conditions noted are these: 3 μM pepducin, 1 min preincubation.
The target in test [6] is T2, PAR4. In words: Inhibition of AYPGKF-induced human platelet aggregation. Type of test: cell-based. As to conditions: AYPGKF.
Test [7] concerns TXA2, ADP, collagen, or GPIb/IX/V receptors. In words: Inhibition of human platelet aggregation induced by U46619, ADP, collagen or ristocetin. Type of test: cell-based. The conditions noted are these: 5 μM pepducin, ristocetin. The source says:
84, 1440 (1989)) and von Willebrand factor (GPIb/IX/V) (Savage et al., Cell 94, 657 (1998)) using platelets as the biologically-relevant system.

Test [8] has as its target T1, PAR1. Put plainly: Inhibition of PAR1-dependent platelet Ca2+ signal. Format: cell-based. As to conditions: SFLLRN (or thrombin) after peptide pre-treatment. As for the experimental part:
(§1) Platelet Ca2+ measurements were performed as in Example 1.
(§2) The integrated Ca^2+ response for the individual treatments are relative to the full Ca^2+ responses for each agonist (100%) recorded in the absence of P4pal-10 (top trace).

Test [9] concerns the target T2, PAR4. In words: Inhibition of PAR4-dependent platelet Ca2+ signal (AYPGKF). Format: cell-based. As to conditions: 3 micromolar pepducin; 200 Micromolar AYPGKF. As for the experimental part:
as §1, §2

Test [10] is described as follows: Tail bleeding time and rebleeding in mice. As to conditions: 3 μmoles/L i.v.
The test system of test [11] is thrombin receptors on human platelets. In words: Inhibition of thrombin-induced human platelet aggregation. As to conditions: 3 μM pepducin.

In [1], `CCCCCCCCCCCCCCCC(=O)N[C@@H](CCCCN)C(=O)N[C@@H](CCCCN)C(=O)N[C@@H](CO)C(=O)N[C@@H](CCCNC(=N)N)C(=O)N[C@@H](C)C(=O)N[C@@H](CC(C)C)C(=O)N[C@@H](Cc1ccccc1)C(N)=O` [Pepducin P1pal-7, Pal-KKSRALF] (Palmitoyl-KKSRALF-NH2) showed an inhibition of chemoinvasion of 30%. In addition, in the test on human platelets, the “agonist activity in platelet aggregation” value was “loss of stimulatory activity”.
Consider `CCCCCCCCCCCCCCCC(=O)N[C@@H](CCCNC(=N)N)C(=O)N[C@@H](CCSC)C(=O)N[C@@H](CC(C)C)C(=O)N[C@@H](CCCNC(=N)N)C(=O)N[C@@H](CO)C(=O)N[C@@H](CO)C(=O)N[C@@H](C)C(=O)N[C@@H](CCSC)C(=O)N[C@@H](CC(=O)O)C(=O)N[C@@H](CCC(=O)O)C(=O)N[C@@H](CC(N)=O)C(=O)N[C@@H](CO)C(=O)N[C@@H](CCC(=O)O)C(=O)N[C@@H](CCCCN)C(=O)N[C@@H](CCCCN)C(=O)N[C@@H](CCCNC(=N)N)C(=O)N[C@@H](CCCCN)C(=O)N[C@@H](CCCNC(=N)N)C(=O)N[C@@H](C)C(=O)N[C@H](C(=O)N[C@@H](Cc1ccccc1)C(N)=O)[C@@H](C)CC` [Pepducin P2pal-21F], for which, at PAR1 [2] (COS7 cells, FIG. 2G), the “activation of PAR1 (InsP)” value is “activated PAR1”. The same molecule displayed an inhibition of chemoinvasion in test [1] of 90%. At PAR4 [3] (COS7 cells), the “activation of PAR4 (InsP)” value is recorded as “not PAR4”.
On to thrombin [reference compound], for which the “full PAR1 thrombin response (InsP stimulation) of individual experiments” value on PAR1 [4] is 7.6 fold and 9.4 fold and 12.4 fold and 18 fold and 9.5 fold and 5.2 fold. Further, the “InsP stimulation of WT PAR1 (100%)” value on PAR1 [2] (0.1 nM thrombin) was 9.6 fold. Besides, on S309P PAR1, the “loss of efficacy on S309P mutant” value amounted to 1.6 fold and the “loss of potency on S309P mutant” value is given as 17 fold. Also, the “shift of potency on delta377 mutant” value with delta377 PAR1 is reported as 22 fold. Also, the EC50 (commonly the concentration needed to bring the measured effect to its halfway point) with murine platelets (PAR4) is 0.6 nM. The “full extracellular agonist-stimulated InsP response” value on PAR4 [3] (10 nM thrombin) was determined as 3.1 fold.
Turning to `CCCCCCCCCCCCCCCC(=O)N[C@@H](CCCNC(=N)N)C(=O)N[C@@H](CS)C(=O)N[C@@H](CC(C)C)C(=O)N[C@@H](CO)C(=O)N[C@@H](CO)C(=O)N[C@@H](CO)C(=O)N[C@@H](C)C(=O)N[C@H](C(=O)N[C@@H](C)C(=O)N[C@@H](CC(N)=O)C(=O)N[C@@H](CCCNC(=N)N)C(=O)N[C@@H](CO)C(N)=O)C(C)C` [Pepducin P1pal-12] (Palmitoyl-RCLSSSAVANRS-NH2), the aggregation blocked at PAR1 [5] was 75-95%. In addition, the “inhibition of PAR4-dependent platelet aggregation” value at PAR4 [6] is on record as “does not inhibit PAR4-dependent platelet aggregation”. In addition, the “block of aggregation by ligands of other platelet receptors” value in test [7] is reported as “did not block aggregation”. In addition, the “inhibition of PAR1-dependent Ca2+ response” value on PAR1 [8] is “effectively inhibits PAR1 activation”; on PAR1 [8] (listed as P1pal12), “completely block PAR1 signaling”. Besides, the “inhibition of PAR4-dependent Ca2+ response” value at PAR4 [9] is recorded as “does not block PAR4 activation”. Besides, in the test on human platelets, the “agonist activity in platelet aggregation” value is listed as “loss of stimulatory activity”. For the same molecule, the “effect on tail-bleeding time” value in [10] is given as “did not prolong tail-bleeding time”. In [10], the “mean total bleeding time” value came to 95 s. For the same molecule, the “re-bleeding / unstable haemostasis” value is “did not prolong tail-bleeding time or result in unstable haemostasis” in test [10] and “not observed” in [10] (listed as P1pal12). Also, the inhibition of aggregation entry is on record as “completely blocked aggregation” in test [11] (3 nM thrombin, 1 min) and “not appreciably blocked” in [11] (20 nM thrombin).
